According to ChEMBL document CHEMBL1129352, “Synthesis and biological evaluation of new imidazole, pyrimidine, and purine derivatives and analogs as inhibitors of xanthine oxidase” (J Med Chem, 1996):

Target: Xanthine dehydrogenase/oxidase (Bos taurus) (UniProt P80457)
Test: Inhibitory activity against Xanthine Oxidase; call rule not given here

Chain of Xanthine dehydrogenase/oxidase (Bos taurus) (P80457 whole entry, looked up): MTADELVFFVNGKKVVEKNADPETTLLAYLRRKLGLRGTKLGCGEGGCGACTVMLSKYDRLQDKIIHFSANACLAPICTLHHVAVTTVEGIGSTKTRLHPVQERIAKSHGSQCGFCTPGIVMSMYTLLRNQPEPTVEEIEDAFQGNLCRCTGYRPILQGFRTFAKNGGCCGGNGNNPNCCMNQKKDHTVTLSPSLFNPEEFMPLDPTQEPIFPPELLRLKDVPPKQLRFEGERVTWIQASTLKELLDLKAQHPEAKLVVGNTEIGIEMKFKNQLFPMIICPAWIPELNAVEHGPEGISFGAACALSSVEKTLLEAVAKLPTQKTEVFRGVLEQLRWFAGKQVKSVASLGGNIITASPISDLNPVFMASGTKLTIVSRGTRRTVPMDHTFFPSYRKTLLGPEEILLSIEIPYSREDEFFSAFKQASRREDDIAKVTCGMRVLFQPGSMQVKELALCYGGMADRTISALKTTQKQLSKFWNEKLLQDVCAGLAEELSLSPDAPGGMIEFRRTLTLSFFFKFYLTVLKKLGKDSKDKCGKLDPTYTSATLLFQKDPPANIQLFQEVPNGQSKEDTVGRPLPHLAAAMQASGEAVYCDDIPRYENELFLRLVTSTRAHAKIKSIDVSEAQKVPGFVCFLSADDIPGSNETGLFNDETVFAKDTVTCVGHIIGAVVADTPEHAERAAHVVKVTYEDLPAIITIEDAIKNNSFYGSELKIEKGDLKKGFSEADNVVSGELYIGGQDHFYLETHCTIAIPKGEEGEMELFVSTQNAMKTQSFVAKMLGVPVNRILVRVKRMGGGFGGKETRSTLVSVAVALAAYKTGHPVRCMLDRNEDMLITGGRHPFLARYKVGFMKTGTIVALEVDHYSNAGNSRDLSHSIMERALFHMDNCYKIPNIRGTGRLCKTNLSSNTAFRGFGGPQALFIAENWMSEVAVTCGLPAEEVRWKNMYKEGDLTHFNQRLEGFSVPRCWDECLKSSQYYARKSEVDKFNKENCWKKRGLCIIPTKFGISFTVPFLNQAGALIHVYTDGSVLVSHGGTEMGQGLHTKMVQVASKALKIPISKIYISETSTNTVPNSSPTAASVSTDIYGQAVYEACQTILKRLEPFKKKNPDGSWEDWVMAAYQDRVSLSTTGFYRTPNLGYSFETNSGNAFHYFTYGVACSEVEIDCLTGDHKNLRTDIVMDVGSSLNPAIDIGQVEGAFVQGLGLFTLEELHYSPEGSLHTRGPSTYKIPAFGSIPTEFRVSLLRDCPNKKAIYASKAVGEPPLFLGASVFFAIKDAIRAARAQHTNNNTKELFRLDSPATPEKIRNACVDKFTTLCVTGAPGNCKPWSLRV

| SMILES | Ki |
| --- | --- |
| Oc1nc2nc(S)nc-2c2n1CCCS2 | 0.89 µM |

Target: T1, Xanthine dehydrogenase/oxidase (Homo sapiens, UniProt P47989)
Test: Inhibitory activity against Xanthine Oxidase

T1 sequence (P47989 whole entry): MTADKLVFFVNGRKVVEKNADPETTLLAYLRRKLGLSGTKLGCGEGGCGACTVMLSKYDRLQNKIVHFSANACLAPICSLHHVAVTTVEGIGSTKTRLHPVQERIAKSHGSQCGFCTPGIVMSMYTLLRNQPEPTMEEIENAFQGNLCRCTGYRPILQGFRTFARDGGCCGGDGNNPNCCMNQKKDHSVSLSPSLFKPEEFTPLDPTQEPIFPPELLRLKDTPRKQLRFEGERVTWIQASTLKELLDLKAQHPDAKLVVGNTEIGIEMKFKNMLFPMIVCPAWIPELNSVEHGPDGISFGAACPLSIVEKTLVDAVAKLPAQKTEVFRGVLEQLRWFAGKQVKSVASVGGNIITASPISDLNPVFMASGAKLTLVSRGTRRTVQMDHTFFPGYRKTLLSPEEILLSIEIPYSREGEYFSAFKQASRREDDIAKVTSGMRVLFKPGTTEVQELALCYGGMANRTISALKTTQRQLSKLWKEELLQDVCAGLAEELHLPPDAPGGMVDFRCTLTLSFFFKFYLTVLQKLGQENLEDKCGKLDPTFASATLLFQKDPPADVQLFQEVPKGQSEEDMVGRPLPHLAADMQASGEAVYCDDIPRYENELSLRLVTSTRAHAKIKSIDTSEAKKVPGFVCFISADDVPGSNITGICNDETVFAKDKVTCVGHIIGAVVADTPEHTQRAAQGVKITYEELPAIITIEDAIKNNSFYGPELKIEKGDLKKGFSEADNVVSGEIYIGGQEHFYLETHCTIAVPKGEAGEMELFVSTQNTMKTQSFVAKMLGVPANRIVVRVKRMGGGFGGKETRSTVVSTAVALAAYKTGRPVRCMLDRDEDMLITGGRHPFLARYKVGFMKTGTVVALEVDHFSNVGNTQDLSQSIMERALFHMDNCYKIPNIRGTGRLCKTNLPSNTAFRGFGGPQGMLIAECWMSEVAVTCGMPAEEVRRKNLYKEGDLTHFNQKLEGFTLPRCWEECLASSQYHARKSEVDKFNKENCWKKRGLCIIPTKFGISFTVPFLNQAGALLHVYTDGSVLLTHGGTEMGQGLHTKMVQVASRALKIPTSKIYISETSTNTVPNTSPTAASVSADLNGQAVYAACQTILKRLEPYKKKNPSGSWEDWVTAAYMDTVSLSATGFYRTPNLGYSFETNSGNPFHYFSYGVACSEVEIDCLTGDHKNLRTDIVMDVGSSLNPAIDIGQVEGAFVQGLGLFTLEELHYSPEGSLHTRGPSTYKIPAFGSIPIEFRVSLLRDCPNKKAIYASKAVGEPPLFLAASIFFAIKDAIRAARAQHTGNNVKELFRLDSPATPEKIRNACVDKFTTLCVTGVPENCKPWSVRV

| SMILES | Ki | IC50 |
| --- | --- | --- |
| Oc1nc2nnnc-2c2n1CCCS2 | > 100 µM | – |
| Oc1nc2nc3n(c(O)c-2n1)CCCS3 | 66.8 µM | – |
| CCCCNc1nc(O)c2[nH]cnc2n1 | 17.7 µM | 25.5 µM |
| CCCCCOC(=O)C(=O)Nc1[nH]cnc1C(N)=O | 1.04 µM | 1.92 µM |
| Oc1c2nc(S)nc-2nc2n1CCS2 | 24.4 µM | – |
| CCCc1nc2n[nH]cc2c(=O)[nH]1 | – | > 100 µM |
| CCc1nc(O)c2c[nH]nc2n1 | – | > 100 µM |
| Oc1nc2nc(-c3ccccc3)nc-2c2n1CCCS2 | 93 µM | – |
| CCCCc1nc(O)c2c[nH]nc2n1 | – | > 100 µM |
| O=c1[nH]c2nc(S(=O)(=O)Cc3ccccc3)[nH]c(=O)c2[nH]1 | 77.8 µM | – |
| CCCCCc1nc2n[nH]cc2c(=O)[nH]1 | – | > 100 µM |
| CCCCCCSc1nc(N)c(NC=O)c(=O)[nH]1 | – | > 100 µM |
| CCCCCCSc1nc(O)c2[nH]c(O)nc2n1 | 0.16 µM | – |
| CC1CSc2nc3nc(O)nc-3c(O)n2C1 (stereo not drawn) | > 100 µM | – |
| CCCCCCNc1nc(O)c2[nH]cnc2n1 | 32.1 µM | 30.5 µM |
| Oc1c2nc(S)nc-2nc2n1CCCS2 | 131 µM | – |
| O=c1nc2[nH]c(=S)[nH]c2c2n1CCS2 | 1.86 µM | – |

| SMILES | Ki | IC50 |
| --- | --- | --- |
| CCCCCCSc1nc2nc(-c3ccccc3)[nH]c2c(=O)[nH]1 | 0.48 µM | – |
| CCCCCCOC(=O)C(=O)Nc1nc[nH]c1C(N)=O | 0.26 µM | 1.11 µM |
| CCCCSc1nc(N)c(NC=O)c(=O)[nH]1 | – | > 100 µM |
| O=c1[nH]c2nc(SCc3ccccc3)[nH]c(=O)c2[nH]1 | 4.49 µM | – |
| CCCC(=O)Nc1nc2nc[nH]c2c(=O)[nH]1 | – | > 100 µM |
| CCCCSc1nc2nc[nH]c2c(=O)[nH]1 | 0.176 µM | 3.88 µM |
| O=c1[nH]c(=S)[nH]c2nc(-c3ccccc3)[nH]c12 | 2.07 µM | – |
| Oc1nc2nc(O)n3c(c-2n1)SCC3 | 1.26 µM | – |
| CCCCCNc1nc2nc[nH]c2c(=O)[nH]1 | 25.7 µM | 28.3 µM |
| Oc1nc2nc3n(c(O)c-2n1)CCS3 | 40.3 µM | – |
| CSc1nc2nc(-c3ccccc3)[nH]c2c(=O)[nH]1 | 5.7 µM | – |
| CCCCCSc1nc(N)c(NC=O)c(=O)[nH]1 | – | > 100 µM |
| Oc1nc2nc(O)n3c(c-2n1)SCCC3 | 0.33 µM | – |
| CC1CSc2nc3nc(S)nc-3c(O)n2C1 (stereo not drawn) | > 100 µM | – |
| CCCCOC(=O)C(=O)Nc1nc[nH]c1C(N)=O | 1.06 µM | 4.29 µM |
| CCCCCC(=O)Nc1nc[nH]c1C(N)=O | 2.56 µM | 12.6 µM |

Target: T1, Xanthine dehydrogenase/oxidase
Test: Inhibitory activity against Xanthine Oxidase; Inactive

| SMILES | IC50 | Ki |
| --- | --- | --- |
| CCCCSc1nc(N)cc(O)n1 | Not Active | – |
| CCCCCCSc1nc(N)cc(O)n1 | Not Active | – |
| CCCCC(=O)Nc1nc(O)c2[nH]cnc2n1 | Not Active | – |
| CCCCCC(=O)Nc1nc(O)c2[nH]cnc2n1 | Not Active | – |
| O=S1(=O)CCCn2c1nc1nc(O)nc-1c2O | – | Not Active |
| CCCCCSc1nc(N)cc(O)n1 | Not Active | – |
